Where a SMILES comes first, the peptide text is derived from it. [ ]: non-standard residue; d: D form.
How the values were obtained:
[1] = Recovery, side effects and body weight of SCI rats after peptide treatment; format: in vivo, rat; settings: 200 μg/kg i.v., six bolus doses after SCI
Experimental: Seventeen individually housed male Wistar rats (Charles River, St. Constant, Quebec, 250-320 g) were used to assess mechanical allodynia and hind-limb locomotion. Males were used in these studies to avoid the confounding variable of hormonal cycles on the assessments of neuropathic pain. All protocols were carried out in accordance with the guidelines set forth by the Canadian Guide to Care and Use of Experimental Animals. All experiments conformed to international guidelines on the ethical use of animals and minimized the number of animals used and their suffering. All rats received pre-operative medication and halothane anesthesia for surgical interventions to accomplish clip compression spinal cord injury (SCI), as described previously (Gris et al., (2004), J. Neurosci., v. 24, pp. 4043-4051; Weaver et al., (2001), J. Neurotrauma, v. 18, pp. 1107-1119). A dorsal laminectomy was performed to expose the 12th thoracic (T12) spinal cord segment. The cord was injured by clip compression for 60 sec without disrupting the dura or adjacent dorsal roots. A modified aneurysm clip (Toronto Western Research Institute, University of Toronto, Toronto, Ontario, Canada) calibrated at 35 g was used at the T12 segment to produce a moderate injury. The rats received postoperative care as described previously (Gris, supra). […]

[2] = Mathison et al., 1997; cited from earlier work

N[C@H](Cc1ccccc1)C(=O)N[C@H](CC(=O)O)C(=O)NCC(=O)O [fdG, D-phenylalanine-D-aspartic acid-Glycine] (H-[dF]-[dD]-Gly-OH)
side effects of treatment [1]: No overt side effects

SGP-T: submandibular gland peptide T; amino acid sequence TDIFEGG
lowest dose showing biological effects [2]: 1 μg/kg
